# From patent publication US8063221B2, “Aminoquinolones as GSK-3 inhibitors” (Kyorin Pharmaceutical Co., Ltd., priority 2006, dated 2011)
# pIC50: −log10 of the molar value. Where two headings read alike, the source gives them in different places.
# Experiments:
# [1] = target: T1, recombinant full-length human GSK3β (Homo sapiens, UniProt P49841); test: Luciferase-coupled cell-free GSK3β kinase assay; format: biochemical
# T1 construct: recombinant full-length human GSK3β (Upstate); purchased Upstate
# Method in brief: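 GSK3β, 10-25 ng, was incubated with compound for 1 h at 30° C in MOPS pH 7.0 buffer containing 62.5 μM phospho-glycogen synthase peptide-2 and 5 μM ATP. Remaining ATP was read by KinaseGlo luminescence, and IC50 was fitted from % inhibition relative to maximal inhibition.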
# [2] = Animal Study 2 (oral glucose tolerance test); parameters: species or system Crlj:CD1 (ICR) mice; settings: Mus musculus, read-out: In vivo studies 300 mg/kg (oral glucose tolerance test, % decrease)
# Source text: The results of in vivo oral glucose tolerance test (Example 39), expressed as % decrease, are presented as follows: […]
# Animal Study 2 (Oral Glucose Tolerance Test)
# Male Crlj:CD1 (ICR) mice were obtained from Charles River Laboratries Japan (Yokohama, Japan). All mice were given a standard diet (Clea Japan, Tokyo, Japan) and tap water ad libitum. All institutional guidelines for animal care and use were applied in this study. Test compounds were suspended in 0.3% carboxymethyl-cellulose sodium salt (CMC-Na; Sigma, St. Louis, Mo.). After fasting for 15-17 hr, the test compound (300 mg/kg) or vehicle (0.3% CMC-Na) was orally administered to 7-week-old ICR mice. Glucose solution (5 g/kg) was orally administered at 30 min after test compound treatment. Blood samples were collected from tail vein using capillary tubes containing EDTA·2K before test compound treatment, and at 0, 0.5, 1, and 2 hr after glucose load. The blood samples were centrifuged at 2,500×g for 5 min and separated plasma was kept on ice and analyzed in the same day. Plasma glucose levels were determined using the glucose C II-test (Wako Pure Chemical Industries, Osaka, Japan).
# The sum of plasma glucose levels at 0.5 and 1 hr after glucose load was compared to that of vehicle treatment, and results were presented as percent decrease.
# E. coli, ATCC8739 = test: Antibacterial activity (MIC), E. coli; format: cell-based; settings: Escherichia coli
# Source text: (§1) As used herein, a minimum inhibitory concentration (MIC) for bacterial growth assay is the lowest level of a compound needed to cause an inhibition to bacterial growth in culture medium. In certain embodiments, the antibacterial activity of compounds herein, measured as MIC.
# (§2) In certain embodiments, GSK3 inhibitors provided herein are substantially free of antibacterial activity or having very low antibacterial activity. The antibacterial activity can be measured by methods known in the art by estimating a minimum inhibitory concentration (MIC) for test compounds. A MIC is the lowest level of a compound needed to cause an inhibition to bacterial growth in a culture medium. […] (Clinical and Laboratory Standards Institute. Methods for Dilution Antimicrobial Susceptibility Tests for Bacteria That Grow Aerobically; Approved Standard-Sixth Edition: CLSI document […]. CLSI, Wayne, Pa. (2003))
# (§3) Antibacterial activity for E. coli, ATCC8739 andS. aureus Smith expressed as MIC (μM) is provided as follows: […]
# S. aureus Smith = test: Antibacterial activity (MIC), S. aureus; format: cell-based; settings: Staphylococcus aureus
# Source text: as §1, §2, §3
# [3] = Table 2, 300 mg/kg oral, ICR mice, plasma glucose 0.5 and 1 hr after glucose load vs vehicle
# [4] = ATCC8739, Table 1, E. coli ATCC8739, read-out: Antibacterial MIC (μM) E.Coli
# [5] = Table 1, read-out: Antibacterial MIC (μM) S. aureus Smith
# [6] = ATCC8739, Table 2, E. coli ATCC8739, read-out: Antimicrobial MIC [μM] E. Coli
# [7] = Table 2, S. aureus Smith, read-out: Antimicrobial MIC [μM] S. aureus
# T1 sequence (P49841 whole entry): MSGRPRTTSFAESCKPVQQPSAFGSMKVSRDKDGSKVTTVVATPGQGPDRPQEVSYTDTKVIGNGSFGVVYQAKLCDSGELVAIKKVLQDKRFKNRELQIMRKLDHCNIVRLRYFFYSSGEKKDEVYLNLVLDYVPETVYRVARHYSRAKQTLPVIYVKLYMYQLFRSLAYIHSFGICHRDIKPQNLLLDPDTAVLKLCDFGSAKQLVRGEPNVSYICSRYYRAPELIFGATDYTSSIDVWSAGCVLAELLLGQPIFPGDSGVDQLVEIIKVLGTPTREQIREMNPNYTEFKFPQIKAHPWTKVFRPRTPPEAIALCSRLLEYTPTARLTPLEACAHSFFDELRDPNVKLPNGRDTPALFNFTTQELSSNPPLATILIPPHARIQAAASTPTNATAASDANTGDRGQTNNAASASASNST
compound,measurement,setting,value
CCN(CCCNc1c(F)c(N)c2c(=O)c(C(=O)O)cn3c2c1OC[C@@H]3C)c1ccccc1 [compound 76],pIC50,[1]; Table 2,> 7.00
same,inhibition in vivo at 300 mg/kg,[2]; [3],> 20%
CC1(C)COc2c(NCCNc3ccccn3)c(F)c(N)c3c(=O)c(C(=O)O)cn1c23 [compound 17],inhibition in vivo at 300 mg/kg,[2]; po,10 to 20%
C[C@H]1COc2c(NCCNC3=NS(=O)(=O)c4ccccc43)c(F)c(N)c3c(=O)c(C(=O)O)cn1c23 [Example 113],pIC50,[1]; Table 2,> 7.00
same,inhibition in vivo at 300 mg/kg,[2]; [3],< 5%
C[C@H]1COc2c(NCCCc3ccccn3)c(F)c(N)c3c(=O)c(C#N)cn1c23 [Example 115],pIC50,[1]; Table 2,> 7.00
same,inhibition in vivo at 300 mg/kg,[2]; [3],< 5%
CC(C)[C@H]1COc2c(NCCCn3ccnc3)c(F)c(N)c3c(=O)c(C(=O)O)cn1c23 [compound 55],inhibition in vivo at 300 mg/kg,[2]; po,10 to 20%
Cc1nn(C)c(C)c1CCCNc1c(F)c(N)c2c(=O)c(C(=O)O)cn3c2c1OC[C@@H]3C [Example 93],inhibition in vivo at 300 mg/kg,[2]; [3],> 20%
C[C@H]1COc2c(NCCCN3CCCc4ccccc43)c(F)c(N)c3c(=O)c(C(=O)O)cn1c23 [compound 67],pIC50,[1]; Table 2,> 7.00
same,inhibition in vivo at 300 mg/kg,[2]; [3],10 to 20%
C[C@H]1COc2c(NCCNc3ccccn3)c(F)c(N)c3c(=O)c(C(N)=O)cn1c23 [Example 109],pIC50,[1]; Table 2,> 7.00
same,inhibition in vivo at 300 mg/kg,[2]; [3],10 to 20%
CC(C)C[C@H]1COc2c(NCCCn3cnc4ccccc43)c(F)c(N)c3c(=O)c(C(=O)O)cn1c23 [compound 49],inhibition in vivo at 300 mg/kg,[2]; po,10 to 20%
Nc1c(F)c(NCCNc2cccc3ccccc23)c(F)c2c1c(=O)c(C(=O)O)cn2CCc1ccccc1 [compound 51],pIC50,[1]; Table 1,6.30 to 7.00
same,MIC,"E. coli, ATCC8739; [4]",10 to 50 µM
same,MIC,S. aureus Smith; [5],10 to 50 µM
Nc1c(F)c(NCCc2ccncc2)c(F)c2c1c(=O)ccn2C1CC1 [compound 11],pIC50,[1]; Table 1,6.30 to 7.00
same,MIC,"E. coli, ATCC8739; [4]",> 50 µM
same,MIC,S. aureus Smith; [5],> 50 µM
Nc1c(F)c(NCCCc2ccccc2)c(F)c2c1c(=O)c(C(=O)O)cn2C1CC1 [compound 6],pIC50,[1]; Table 1,> 7.00
same,MIC,"E. coli, ATCC8739; [4]",10 to 50 µM
same,MIC,S. aureus Smith; [5],0.5 to 10 µM
CC(C)[C@H]1COc2c(NCCNc3ccccn3)c(F)c(N)c3c(=O)c(C(=O)O)cn1c23 [compound 61],inhibition in vivo at 300 mg/kg,[2]; po,10 to 20%
Nc1cc(NCCNc2cccc3ccccc23)cc2c1c(=O)ccn2C1CC1 [compound 66],pIC50,[1]; Table 1,> 7.00
same,MIC,"E. coli, ATCC8739; [4]",10 to 50 µM
same,MIC,S. aureus Smith; [5],10 to 50 µM
COc1c(NCCNc2ccccn2)c(F)c(N)c2c(=O)c(C(=O)O)cn(Cc3ccccc3)c12 [Example 130],pIC50,[1]; Table 2,< 6.00
same,MIC,"E. coli, ATCC8739; [6]",0.5 to 10 µM
same,MIC,S. aureus Smith; [7],0.5 to 10 µM
COc1c(NCCNc2ccccn2)c(F)c(N)c2c(=O)c(C#N)cn(C3CC3)c12 [Example 142],pIC50,[1]; Table 2,> 7.00
same,MIC,"E. coli, ATCC8739; [6]",> 50 µM
same,MIC,S. aureus Smith; [7],> 50 µM
Nc1c(F)c(NCCc2ccncc2)c(F)c2c1c(=O)ccn2CCc1ccccc1 [compound 59],pIC50,[1]; Table 1,6.30 to 7.00
same,MIC,"E. coli, ATCC8739; [4]",> 50 µM
same,MIC,S. aureus Smith; [5],> 50 µM
CC1(C)Cn2cc(C(=O)O)c(=O)c3c(N)c(F)c(NCCCn4ccnc4)c(c32)O1 [compound 58],pIC50,[1]; Table 2,6.30 to 7.00
same,MIC,"E. coli, ATCC8739; [6]",> 50 µM
same,MIC,S. aureus Smith; [7],> 50 µM
COc1c(NCCCc2ccccc2)c(F)c(N)c2c(=O)c(C(=O)O)cn(C3CCCC3)c12 [compound 79],pIC50,[1]; Table 1,6.30 to 7.00
same,MIC,"E. coli, ATCC8739; ATCC8739, read-out: Antibacterial MIC (μM) E.Coli",10 to 50 µM
same,MIC,S. aureus Smith; read-out: Antibacterial MIC (μM) S. aureus Smith,10 to 50 µM
CCOC(=O)CCNc1c(F)c(N)c2c(=O)c(C(=O)O)cn(C3CC3)c2c1OC [Example 122],pIC50,[1]; Table 2,6.00 to 6.30
same,MIC,"E. coli, ATCC8739; [6]",10 to 50 µM
same,MIC,S. aureus Smith; [7],0.5 to 10 µM
CC(C)[C@@H]1COc2c(NCCCn3ccnc3)c(F)c(N)c3c(=O)c(C(=O)O)cn1c23 [compound 63],pIC50,[1]; Table 2,> 7.00
same,MIC,"E. coli, ATCC8739; [6]",> 50 µM
same,MIC,S. aureus Smith; [7],10 to 50 µM
Nc1c(F)c(NCCCn2ccnc2)c2c3c1c(=O)c(C(=O)O)cn3CCO2 [compound 9],pIC50,[1]; Table 2,6.00 to 6.30
same,MIC,"E. coli, ATCC8739; [6]",10 to 50 µM
same,MIC,S. aureus Smith; [7],> 50 µM
